# Measured values taken from PubChem BioAssay (NCI).
#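 96-well plates; 48 h exposure; 5 concentrations. Endpoints by linear interpolation between flanking doses. Not reached: highest tested concentration assigned. TGI: concentration producing complete growth inhibition.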
# Experiments:
# Assay in all cases: NCI-60 cell line screen, 48 h
# [1] = test system: SK-MEL-28 melanoma
# [2] = test system: NCI-H460 lung
# [3] = test system: NCI-H23 lung
# [4] = test system: OVCAR-4 ovarian
# [5] = test system: SN12C renal
# [6] = test system: MDA-MB-435
# [7] = test system: NCI-H522 lung
# [8] = test system: SK-MEL-5 melanoma
# [9] = test system: DU-145 prostate
# [10] = test system: ACHN renal
# [11] = test system: HS 578T breast
# [12] = test system: A498 renal
# [13] = test system: HT29 colon
# [14] = test system: BT-549 breast
# [15] = test system: SK-OV-3 ovarian
# [16] = test system: T-47D breast
# [17] = test system: OVCAR-8 ovarian
# [18] = test system: M14 melanoma
# [19] = test system: SF-295 CNS
# [20] = test system: HCC-2998 colon
# [21] = test system: HCT-116 colon
# [22] = test system: RPMI-8226 leukemia
# [23] = test system: MDA-N
# [24] = test system: EKVX NSCLC
# [25] = test system: NCI-H226 lung
# [26] = test system: UO-31 renal
# [27] = test system: HCT-15 colon
# [28] = test system: CAKI-1 renal
# [29] = test system: HOP-92 NSCLC
# [30] = test system: U251 CNS
# [31] = test system: K-562 leukemia
# [32] = test system: RXF 393 renal
# [33] = test system: 786-0 renal
# [34] = test system: OVCAR-5 ovarian
# [35] = test system: SF-539 CNS
# [36] = test system: IGROV1 ovarian
# [37] = test system: MCF7 breast
# [38] = test system: LOX IMVI melanoma
# [39] = test system: COLO 205 colon
# [40] = test system: SNB-19 CNS
# [41] = test system: SF-268 CNS
# [42] = test system: MOLT-4 leukemia
# [43] = test system: HOP-62 NSCLC
# [44] = test system: UACC-62 melanoma
# [45] = test system: OVCAR-3 ovarian
# [46] = test system: PC-3 prostate
# [47] = test system: TK-10 renal
# [48] = test system: SNB-75 CNS
# [49] = test system: UACC-257 melanoma
# [50] = test system: SK-MEL-2 melanoma
# [51] = test system: KM12 colon
# [52] = test system: MDA-MB-231 breast
# [53] = test system: A549 NSCLC
# [54] = test system: SW-620 colon
# [55] = test system: NCI/ADR-RES ovarian
smiles,measurement,setting,value
Clc1ccc(N=C2c3ccccc3CN2c2ccc(Cl)cc2)cc1,TGI,[1],> 100 µM
same,TGI,[2],> 100 µM
same,TGI,[3],> 100 µM
same,TGI,[4],> 100 µM
same,TGI,[5],> 100 µM
same,TGI,[6],> 100 µM
same,TGI,[7],> 100 µM
same,TGI,[8],> 100 µM
same,TGI,[9],> 100 µM
same,TGI,[10],> 100 µM
same,TGI,[11],> 100 µM
same,TGI,[12],> 100 µM
same,TGI,[13],> 100 µM
same,TGI,[14],> 100 µM
same,TGI,[15],> 100 µM
same,TGI,[16],94 µM
same,TGI,[17],> 100 µM
same,TGI,[18],> 100 µM
same,TGI,[19],> 100 µM
same,TGI,[20],> 100 µM
same,TGI,[21],> 100 µM
same,TGI,[22],> 100 µM
same,TGI,[23],> 100 µM
same,TGI,[24],> 100 µM
same,TGI,[25],> 100 µM
same,TGI,[26],> 100 µM
same,TGI,[27],> 100 µM
same,TGI,[28],> 100 µM
same,TGI,[29],> 100 µM
same,TGI,[30],> 100 µM
same,TGI,[31],> 100 µM
same,TGI,[32],> 100 µM
same,TGI,[33],> 100 µM
same,TGI,[34],> 100 µM
same,TGI,[35],> 100 µM
same,TGI,[36],> 100 µM
same,TGI,[37],> 100 µM
same,TGI,[38],> 100 µM
same,TGI,[39],> 100 µM
same,TGI,[40],> 100 µM
same,TGI,[41],> 100 µM
same,TGI,[42],> 100 µM
same,TGI,[43],> 100 µM
same,TGI,[44],> 100 µM
same,TGI,[45],> 100 µM
same,TGI,[46],> 100 µM
same,TGI,[47],> 100 µM
same,TGI,[48],> 100 µM
same,TGI,[49],> 100 µM
same,TGI,[50],> 100 µM
same,TGI,[51],> 100 µM
same,TGI,[52],> 100 µM
same,TGI,[53],> 100 µM
same,TGI,[54],> 100 µM
same,TGI,[55],> 100 µM
